Measurements published in PMC8588048, “Discovery of Guanidine Derivatives from Buthus martensii Karsch with Metal-Binding and Cholinesterase Inhibition Properties” (Molecules, 2021).
Entries after “also recorded” stand apart in the source; their conditions may differ. Where two headings read alike, the source gives them in different places.

Assays:
[1] = target: T1, BChE (EC 3.1.1.8, from equine serum) (Equus caballus, UniProt P81908); experiment: biochemical
T1 construct: purchased Sigma-Aldrich (St. Louis, MO, USA); host or cells: equine serum
Experimental: (§1) A Waters Acquity UPLC Class I/Xevo G2Q-Tof mass spectrometer (Milford, MA, USA) was used to obtain the high-resolution ESI-MS (HR-ESI-MS) data. ^1H and ^13C NMR spectra were acquired on a Bruker Avance III 400 spectrometer spectrometer (Karlsruhe, Germany) with TMS as an internal standard. ^1H-^1H DQF-COSY, NOESY, TOCSY, HSQC and HMBC spectra were recorded using standard Bruker programs spectrometer (Topspin 3.5pl6, Karlsruhe, Germany). […] Thin layer chromatography (TLC) analysis was performed on alumina plates coated with silica gel 60 and silica gel 60 RP-18 F254 (Merck) spectrometer (Darmstadt, Germany). Chromatographic separation was performed on self-packed columns with silica gel (Anhui Liangchen Silicon Material Co. Ltd., China) and reversed-phase silica gel (ODS-A 12 nm S-50 μm YMC Co., Kyoto, Japan). AChE (EC 3.1.1.7, from electric eel), BChE (EC 3.1.1.8, from equine serum), 5,5′-dithiobis(2-nitrobenzoic acid) (DTNB), acetylthiocholine iodide (ATCI), and butyrylthiocholine iodide (BTCI) were purchased from Sigma-Aldrich (St. Louis, MO, USA).
(§2) AChE (EC 3.1.1.7, from electric eel) and BChE (EC 3.1.1.8, from equine serum) were purchased from Sigma-Aldrich (St. Louis, MO, USA). […] After reaction for 15 min at 25 °C, 10 μL of 10 mM DTNB and 10 μL of 7.5 mM ATCI (BTCI) were added and then incubated for 40 min at 37 °C. […] Blank groups were set up by replacing the sample solution with 20 μL phosphate buffer (Ac). All tests were performed in triplicate.

AChE = target: T2, AChE (Electrophorus electricus, UniProt O42275); experiment: Enzyme kinetic analysis against AChE; assay type: biochemical; details: for Ki: Dixon and Cornish–Bowden plots; for type of AChE inhibition: Lineweaver–Burk plots, ATCI 3.75–15.00 mM; for reversibility of AChE inhibition: initial velocity versus enzyme concentration, AChE 0.025–0.10 U/mL
T2 construct: purchased Sigma-Aldrich (St. Louis, MO, USA)
Experimental: […]. Inhibition constants for AChE were determined from Dixon plot (1/Vi vs. (I)) and Cornish–Bowden transformation ((S)/Vi vs. (I)).

[2] = Metal-binding studies (UV spectra); assay type: physicochemical; details: UV 200–400 nm, compound 20 μM, CuCl2, FeCl2, ZnCl2, AlCl3 20 μM, methanol, 30 min
Experimental: The chelating studies were performed on an ultraviolet–visible spectrophotometry meter (HITACHI U-3900H, Tokyo, Japan). The UV absorption spectra of the test compound alone (20 μM, final concentration) or in the presence of CuCl2, FeCl2, ZnCl2 and AlCl3 (20 μM, final concentration) were recorded with the wavelength ranging from 200 to 400 nm after incubating for 30 min in methanol at room temperature.

[3] = target: T3, peripheral anionic site (PAS) of AChE (Electrophorus electricus, UniProt O42275); assay type: binding; details: test compounds 100 μM, propidium iodide 1 μM, AChE 5U
T3 construct: purchased Sigma-Aldrich (St. Louis, MO, USA)
Experimental: The assay mixture of AChE (5U) was incubated with test compounds (final concentration 100 μM, 150 μL) for 6 h at 25 °C. After reaction, 50 μL Propidium iodide (1 μM) was added. […] The percentage of displacement was calculated by the following expression: 100 − (IFi/IF0 × 100), where IFi and IF0 are the fluorescence intensities with and without the test compounds, respectively.

[4] = target: T4, AChE (EC 3.1.1.7, from electric eel) (Electrophorus electricus, UniProt O42275); experiment: biochemical; assay type: biochemical; details: for SI for AChE = IC50 BChE/IC50 AChE: selectivity index for AChE over BChE
T4 construct: purchased Sigma-Aldrich (St. Louis, MO, USA)
Experimental: as §1, §2

[5] = means ± SD, at least three independent experiments, read-out: IC50 BChE
[6] = means ± SD, at least three independent experiments, read-out: IC50 AChE

T2 sequence (O42275 24-633): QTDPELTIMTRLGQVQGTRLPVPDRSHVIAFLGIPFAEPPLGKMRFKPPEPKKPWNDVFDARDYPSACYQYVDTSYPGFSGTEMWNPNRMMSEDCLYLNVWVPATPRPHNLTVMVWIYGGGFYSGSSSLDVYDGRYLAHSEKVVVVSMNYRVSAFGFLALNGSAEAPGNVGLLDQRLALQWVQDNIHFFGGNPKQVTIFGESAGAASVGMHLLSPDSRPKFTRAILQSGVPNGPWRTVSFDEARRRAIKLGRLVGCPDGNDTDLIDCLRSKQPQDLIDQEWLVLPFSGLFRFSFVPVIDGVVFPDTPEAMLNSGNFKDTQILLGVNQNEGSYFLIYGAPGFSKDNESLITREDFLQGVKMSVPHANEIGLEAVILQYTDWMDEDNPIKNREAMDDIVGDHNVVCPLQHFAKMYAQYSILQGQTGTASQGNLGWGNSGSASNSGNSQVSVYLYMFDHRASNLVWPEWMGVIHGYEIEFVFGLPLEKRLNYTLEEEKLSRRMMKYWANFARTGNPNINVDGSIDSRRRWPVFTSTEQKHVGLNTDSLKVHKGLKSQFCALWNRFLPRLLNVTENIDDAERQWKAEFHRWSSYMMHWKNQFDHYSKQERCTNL
T4 sequence (O42275 24-633): as above
T1 sequence (P81908 whole entry): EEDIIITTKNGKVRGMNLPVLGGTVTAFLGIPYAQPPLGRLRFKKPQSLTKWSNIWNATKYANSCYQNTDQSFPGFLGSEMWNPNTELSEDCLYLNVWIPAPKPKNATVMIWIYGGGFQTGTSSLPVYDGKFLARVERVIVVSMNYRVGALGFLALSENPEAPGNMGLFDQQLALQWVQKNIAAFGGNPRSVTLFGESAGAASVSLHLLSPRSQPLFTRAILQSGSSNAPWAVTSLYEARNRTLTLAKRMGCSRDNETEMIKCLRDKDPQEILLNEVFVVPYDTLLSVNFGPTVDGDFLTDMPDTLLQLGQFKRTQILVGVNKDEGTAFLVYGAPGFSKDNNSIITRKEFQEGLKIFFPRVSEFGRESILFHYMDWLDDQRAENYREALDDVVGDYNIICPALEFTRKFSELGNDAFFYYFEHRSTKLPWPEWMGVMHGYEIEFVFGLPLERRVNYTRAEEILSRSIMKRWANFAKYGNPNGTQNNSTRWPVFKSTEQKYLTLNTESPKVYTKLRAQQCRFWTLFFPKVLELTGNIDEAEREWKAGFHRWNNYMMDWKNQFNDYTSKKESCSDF
T3 sequence (O42275 24-633): as the sequence (O42275 24-633) above

Row | SMILES | IC50 [1, 5] [µM] | Ki (AChE; read-out: inhibition constant Ki,c (competitive component)) [µM] | Ki (AChE; read-out: inhibition constant Ki,nc (non-competitive component)) [µM] | type of AChE inhibition (AChE) | reversibility of AChE inhibition (AChE) | reversibility of AChE inhibition (AChE; listed as Buthutin A) | metal binding ability toward Cu2+, Fe2+, Zn2+ and Al3+ [2] | Propidium Iodide Displacement [3] [%] | IC50 [4, 6] [µM] | SI for AChE = IC50 BChE/IC50 AChE [4] | IC50 [1] [µM] | IC50 [4] [µM] | IC50 AChE [4]
1 | N=C(N)NCCCCNC(=O)c1ccc(O)cc1 [Compound 1, N-(4-guanidinobutyl)-4-hydroxybenzamide] | 47.4 ± 0.95 | 2.64 ± 0.35 | 5.66 ± 0.82 | mixed type of inhibition | reversible inhibitors | reversible | satisfactory biometal binding abilities; also recorded: potent metal binding ability; also recorded: satisfactory metal-binding properties | 18.29 ± 0.53 | 7.83 ± 0.06 | 6.05 | – | – | –
2 | N=C(N)NCCCCNC(=O)c1ccccn1 [Compound 2, N-(4-guanidinobutyl)picolinamide] | 123 ± 5.21 | – | – | mixed type of inhibition | reversible inhibitors | – | – | 17.95 ± 0.98 | 61.4 ± 2.34 | 1.99 | – | – | –
3 | C[n+]1cccc(C(=O)[O-])c1 [Compound 3] | – | – | – | – | – | – | satisfactory biometal binding abilities; also recorded: potent metal binding ability; also recorded: satisfactory metal-binding properties | – | – | – | 442 ± 7.99 | 97.3 ± 4.18 | weaker inhibitory effect
4 | CC(C)CCSS [Compound 4, 3-methylbuthyl hydrodisulfide] | 153 ± 7.22 | – | – | – | – | – | – | – | 40.9 ± 3.21 | 3.73 | – | – | –
